Data from article PMC8901119 (Chemical Science, 2021).
Several values for one entry are separate records, joined by “and”; a condition that tells them apart may be missing. Equal entries are not always repeated.

Legend:
Cathepsin L = molecular target: T1, Cathepsin L (Homo sapiens, UniProt P07711); experiment: Cathepsin L inhibition assay in MDA-MB-231 cells (Magic Red); type: cell-based; conditions: for Cathepsin Activity (%), single technical replicates: normalized to 0.5% DMSO + Magic Red control, biological replicates 1 and 2
T1 construct: host or cells: MDA-MB-231 cells
Protocol: Phan et al. Electronic SupplementaryInformation
Cell Culture & Cathepsin L Inhibition Assays in MDA -MB-231 Cells
MDA-MB-231 cells (ATCC, #HBT-26) were seeded at 1 x 10^5/well in a black, 24-well, TC-treated plate (Corning). Cells were cultured in 400 µL media per well containing DMEM (Corning), 10% Fetal Bovine Serum (FBS; Atlanta Biologicals), and 1% Penicillin/Streptomycin (Gibco) at 37 °C in 5% CO2. After 48 hours, the cells in each well were treated with 400 µL fresh media containing either 0.5 % DMSO (sterile filtered; Sigma Aldrich), 20 µM SID 26681509 (a known Cts L inhibitor; Tocris), 10 µM E-64 (a known cell-permeable pan cathepsin inhibitor; Tocris), or 50 µM
RS1A. Cathepsin L activity in MDA-MB-231 cells were then evaluated using ICT’s Magic Red TM cathepsin-L substrate, MR-(FR) 2, according to the manufacturer’s protocol (Immunochemistry Technologies, LLC). After incubating the cells for 24 hours in the experimental conditions, 16 µL sterile Milli-Q H 2O (for the unstained cell controls) or 16 µL 26X Magic Red staining solution was added to each well, and the 24-well plate was covered with foil for 60 minutes in a 37°C incubator with 5% CO2. The media was removed from the cell monolayer surface and the cells were rinsed Dulbecco’s phosphate-buffered saline containing Mg 2+ and Ca2+ (DPBS; Corning) (2 x 500 µL DPBS/well with 1 min/rinse). The cells were then immediately visualized at 20X magnification with an Olympus CKX53 microscope with a Reflected Light Fluorescence Illuminator equipped with a green 530-550 nm exciter filler, 570 nm dichroic mirror , and a long pass 575 nm emission/barrier filter. Images were taken by Olympus EP50 camera via the Olympic EP app on an iPhone XR. Positive cells stained with Magic Red would appear red with more brightly stained vacuoles and lysosomes. […]
Cell fluorescence from raw images was analyzed using ImageJ -Fiji. The color images were first split into RGB channels; all Red-channel images were then quantified for integrated fluorescence density across the entire images at the same threshold. […]

SARS-CoV-2 pseudovirus = tested on: SARS-CoV-2 pseudovirus; parameters: method as in PMID 32221306; conditions: HEK 293/hACE2 cells; cited from earlier work
Cts L = tested on: Cts L; parameters: method as in earlier work; conditions: 10 µM, 24-hour treatment; ref 20 (ESI); cited from earlier work

T1 sequence (P07711 114-333): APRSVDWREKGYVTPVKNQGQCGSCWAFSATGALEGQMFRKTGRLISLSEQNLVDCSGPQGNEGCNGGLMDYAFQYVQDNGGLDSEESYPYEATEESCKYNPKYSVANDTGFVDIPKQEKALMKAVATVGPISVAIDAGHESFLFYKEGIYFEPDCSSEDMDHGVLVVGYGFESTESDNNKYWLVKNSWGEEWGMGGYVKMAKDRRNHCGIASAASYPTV

Structure (SMILES) | Cathepsin Activity (%), single technical replicates (Cathepsin L; 20 uM, listed as SID, 20 µM) | Decrease of SARS-CoV-2 pseudovirus entry (SARS-CoV-2 pseudovirus) | Reduction of Cts L activity in MDA-MB-231 cells (Cathepsin L; 10 µM, 24 hours) [%] | Cathepsin Activity (%), single technical replicates (Cathepsin L; 10 uM, 10 µM) | Reduction of Cts L activity in MDA-MB-231 cells (Cts L)
CCc1ccccc1NC(=O)CSC(=O)NNC(=O)[C@H](Cc1c[nH]c2ccccc12)NC(=O)OC(C)(C)C [SID 26681509] | 93.8537% and 84.7857% and 75.9763% and 71.3834% and 62.7105% and 65.0709% | more than 76% | – | – | –
CC(C)C[C@H](NC(=O)[C@H]1O[C@@H]1C(=O)O)C(=O)NCCCCN=C(N)N [E-64] | – | – | 32 | 74.2204% and 67.3402% and 72.3857% and 56.9211% and 49.1973% and 90.0663% | 30-40%
